Consider eleven compounds from the supplement of paper PMC4862054.

SMILES strings stand for the structures.

Assay in all cases: normalised response (% of control), CellTiter-Glo; higher = more viable cells (100 = DMSO, 0 = benzethonium chloride kill control)
Holding throughout (settings): incubation time: 72 h

The subject of test [1] is CAL-120. The method in brief:
(§1)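 Breast cancer cell lines in 20 µl suspension were added to 384-well plates containing compound at 5 concentrations, spaced in 10-fold steps across a 10,000-fold range chosen for each compound, and incubated for 72 h. CellTox Green fluorescence was read at 485/520 nm, followed by CellTiter-Glo luminescence after 10 min at room temperature. Signals on each plate were normalised so that 0.1 % DMSO equals 100 and a positive kill control equals 0. Every value in the table is the normalised signal at one concentration of the series.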

Test [2] concerns CAL-148. The method in brief: as §1
In test [3] the test system is MCF-10A. The method in brief:
as §1

The test system of test [4] is SK-BR-3. Summed up: as §1
In test [5] the test system is BT-549. The method in brief: as §1
In test [6] the test system is HCC1599. The method in brief:
as §1

Test [7] concerns MDA-MB-436. Summed up:
as §1

Test [8] deals with HDQ-P1. The method in brief:
as §1

The subject of test [9] is MDA-MB-453. Summed up: as §1
In test [10] the test system is BT-474. The method in brief:
as §1

The test system of test [11] is DU-4475. Summed up: as §1
Test [12] deals with CAL-51. Summed up: as §1

For the compound `Cn1cc(C2=C(c3cn(C4CCN(Cc5ccccn5)CC4)c4ccccc34)C(=O)NC2=O)c2ccccc21` [Enzastaurin] (10000 nM), the normalised response in [1] was determined as 91.1%; in test [2] it was 107%; in test [3] it was 87.5%; in [4], 85.6%; in test [5], 61.2%; in test [6], 78.2%. The normalised response is 101% in test [7]; 70.1% in test [8]; 101% in [9]; 96% in test [10]; 105% in test [11]; 82.1% in test [12].
Turning to `COc1cc(Nc2c(C#N)cnc3cc(OCCCN4CCN(C)CC4)c(OC)cc23)c(Cl)cc1Cl` [Bosutinib] (10000 nM), the normalised response in [1] stood at 43.4%; in [2], 33.3%; in [3], 1.72%; in [4], 1.81%; in test [5], 15.6%; in test [6] it was 13.5%. For the same compound, the normalised response is 5.63% in [7]; 9.28% in test [8]; 6.11% in [9]; 2.86% in test [10]; 70% in [11]; 25% in test [12].
With `CC(C)C[C@H](NC(=O)[C@@H](COC(C)(C)C)NC(=O)[C@H](Cc1ccc(O)cc1)NC(=O)[C@H](CO)NC(=O)[C@H](Cc1c[nH]c2ccccc12)NC(=O)[C@H](Cc1cnc[nH]1)NC(=O)[C@@H]1CCC(=O)N1)C(=O)N[C@@H](CCCNC(=N)N)C(=O)N1CCC[C@H]1C(=O)NNC(N)=O` [Goserelin] (10000 nM), the normalised response is 94.8% in test [1]; 91.2% in test [2]; 100% in test [3]; 102% in test [4]; 101% in [5]; 97.5% in [6]. Further, the normalised response in test [7] was determined as 97.7%; in [8] it was 101%; in [9], 101%; in test [10], 92.6%; in test [11], 97.1%; in test [12] it was 113%.
Turning to `CC(O)(CS(=O)(=O)c1ccc(F)cc1)C(=O)Nc1ccc(C#N)c(C(F)(F)F)c1` (configuration not stated) [Bicalutamide] (10000 nM), the normalised response turned out to be 105% in test [1]; 107% in test [2]; 107% in [3]; 103% in [4]; 94.2% in [5]; 95.5% in [6]. In addition, the normalised response is 114% in [7]; 96.4% in test [8]; 88.5% in test [9]; 108% in test [10]; 98.4% in test [11]; 92.8% in test [12].
As for `O=C(CCCCCCC(=O)Nc1ccccc1)NO` [Vorinostat] (10000 nM), the normalised response in [1] was 46.1%; in test [2] it was 29.6%; in test [3], 43.3%; in test [4], 14.1%; in [5] it was 47.7%; in [6] it was 8.35%. Also, the normalised response in test [7] stood at 52.2%; in [8] it was 64.3%; in [9], 3.2%; in test [10] it was 17.3%; in test [11], 27.8%; in test [12] it was 22.8%.
Regarding `C=CCn1c(=O)c2cnc(Nc3ccc(N4CCN(C)CC4)cc3)nc2n1-c1cccc(C(C)(C)O)n1` [MK1775] (10000 nM), the normalised response in [1] was 22.8%; in [2], 9.04%; in [3], 19%; in test [4], 8.92%; in [5], 6.99%; in test [6], 4.65%. Besides, the normalised response in test [7] worked out at 15.8%; in test [8], 17.4%; in test [9], 44%; in [10] it was 29.4%; in [11], 11.9%; in [12], 8.21%.
Consider `C/C(=C\c1csc(C)n1)[C@@H]1C[C@@H]2O[C@]2(C)CCC[C@H](C)[C@H](O)[C@@H](C)C(=O)C(C)(C)[C@@H](O)CC(=O)N1` [Ixabepilone] (1000 nM), for which the normalised response in [1] worked out at 98%; in test [2], 107%; in test [3], 95.6%; in test [4], 104%; in test [5], 20.8%; in test [6] it was 115%. Moreover, the normalised response came to 103% in test [7]; 99.1% in test [8]; 106% in test [9]; 41.9% in [10]; 100% in test [11]; 23.7% in [12].
As for `CNC(=O)c1ccccc1Sc1ccc2c(/C=C/c3ccccn3)n[nH]c2c1` [Axitinib] (10000 nM), the normalised response in [1] turned out to be 75.8%; in [2], 67%; in test [3], 78.6%; in test [4] it was 77%; in test [5], 49.7%; in [6] it was 69%. The normalised response in [7] was determined as 64.1%; in [8], 77.8%; in test [9], 113%; in [10], 80.4%; in [11], 76%; in test [12] it was 38.6%.
`CCNC(=O)c1noc(-c2cc(C(C)C)c(O)cc2O)c1-c1ccc(CN2CCOCC2)cc1` [NVP-AUY922] (1000 nM): the normalised response in [1] is 47.9%; in test [2], 29.3%; in test [3] it was 16.7%; in test [4], 39.4%; in test [5], 39.8%; in [6], 77%. The normalised response in [7] is 50.9%; in [8] it was 23.6%; in [9], 26.3%; in test [10] it was 25.6%; in [11], -0.14%; in test [12] it was 13.5%.
As for `Cc1cn(-c2cc(NC(=O)c3ccc(C)c(Nc4nccc(-c5cccnc5)n4)c3)cc(C(F)(F)F)c2)cn1` [Nilotinib] (10000 nM), the normalised response is 103% in test [1]; 98% in test [2]; 99.4% in test [3]; 99.4% in test [4]; 61.2% in test [5]; 119% in [6]. The normalised response came out at 106% in test [7]; 105% in test [8]; 102% in test [9]; 94.7% in [10]; 102% in test [11]; 86.3% in test [12].
For the compound `CC1(C)CCC(c2ccc(Cl)cc2)=C(CN2CCN(c3ccc(C(=O)NS(=O)(=O)c4ccc(N[C@H](CCN5CCOCC5)CSc5ccccc5)c(S(=O)(=O)C(F)(F)F)c4)cc3)CC2)C1` [Navitoclax] (10000 nM), the normalised response was determined as 37.4% in test [1]; 72.4% in test [2]; 92.5% in test [3]; 73.2% in test [4]; 86.7% in [5]; 93.1% in test [6]. Also, the normalised response in test [7] was found to be 90.7%; in [8], 66.8%; in test [9] it was 60.3%; in test [10], 23.5%; in test [11], 72.4%; in test [12], 74.5%.
